Each structure is given as a SMILES string.

Data on 17 molecules can be found in patent US10100064B2, “Purine inhibitors of human phosphatidylinositol 3-kinase delta” (Merck Sharp & Dohme Corp., priority 2014, dated 2018).

For assay [1], the target named is T1, PI3Kdelta (Homo sapiens, UniProt O00329).
T1 construct: purchased Upstate; Millipore 14-604
Kind of assay: HTRF PI3K biochemical assay, delta isoform. To be noted: 0.3 nM enzyme, 100 uM ATP, 5 uM PIP2, form screened (Neutral or TFA salt) given per compound. The source says: (§1) HTRF PI3K Biochemical Assay to Measure Intrinsic Potency of Compound Inhibitors
(§2) The PI3-Kinase biochemical assays were developed to measure the intrinsic potency and compound dependent inhibition of the alpha, beta, delta, and gamma PI3K isoform enzymes. This assay was developed and further optimized from a kit produced by Upstate (Millipore catalog #33-047) and has been configured for HTS and SAR screening. Briefly, this procedure exploits the exquisite specificity and high affinity binding of […] phosphatidyl(3,4,5)triphosphate (PIP3) to the GRP1 pleckstrin homology (PH) domain to generate the signal. In the absence of PIP3, an HTRF (Homogeneous Time-Resolved Fluorescence energy transfer) complex is formed consisting of europium (Eu)-labeled anti-GST, GSTtagged GRP1-PH domain, biotin-PIP3 and streptavidin conjugated APC. The native PIP3 produced by PI3-Kinase activity disrupts in a competitive manner the biotin-PIP3 from the PH domain, resulting in the loss of energy transfer (HTRF complex) and a decrease in the signal. The format of this assay is the same for all 4 isoforms of PI3K; the differences lie in the concentration of enzyme used to achieve robust assay window. The alpha, beta, and delta assays are run at 0.5, 1, and 0.3 nM enzymes and the gamma assay is run at 5 nM enzyme. The ATP concentration is 100 uM in the alpha, beta, and delta assays and 50 uM ATP in the gamma assay. All reactions are run at 5 uM PIP2.
(§3) Compounds are serially diluted (3-fold in 100% DMSO) across a 384-well polypropylene source plated from column 3 to column 12 and column 13 to column 22, to yield 10 concentration dose response for each test compound. Columns 1, 2, 23 and 24 contain either only DMSO or pharmacological known control inhibitor. Once titrations are made, 2.5 nL of the compounds on 384 well plates are reformatted and transferred by acoustic dispense in quadruplicates to a 1536 assay plate (Greiner) to assay across all four PI3K isoform enzymes.
(§4) The PI3-Kinase biochemical assay was optimized using the HTRF kit provided by Upstate (Millipore). The assay kit contains six reagents: 1) 4× Reaction Buffer; 2) native PIP2 (substrate); 3) Stop (EDTA); 4) Detection Mix A (Streptavidin-APC); 5) Detection Mix B (Eu-labeled Anti-GST plus GST-tagged PH-domain); 6) Detection Mix C. In addition, the following items were obtained or purchased; PI3Kinase (alpha 14-602, beta 14-603, gamma 14-558 and delta 14-604 from Upstate; Millipore), dithiothreitol (Sigma, D-5545), Adenosine-5′ triphosphate (InVitrogen, Cat#AS001A), native PIP3 (PI(3,4,5)P3, diC8, H^+, CELLSIGNALS, INC. Cat #907) DMSO (Sigma, 472301).
(§5) PI3Kinase Reaction Buffer is prepared by dilution the stock 1:4 with de-ionized water. DTT, PIP2 and Biotin-PIP3 were added to 1536 assay plate at a final concentration of 5 mM, […] 25 nM on the day of use. Enzyme addition and compound pre-incubation are initiated by the addition of 1.25 ul of PI3K (at twice its final concentration) in the 1× reaction buffer to all wells using a BioRaptor. Plates are incubated at room temperature for 15 minutes. Reactions are initiated by addition of 1.25 ul of 2× substrate solution (PIP2 and ATP in 1× reaction buffer) using BioRaptor. Plates are incubated in humidified chamber at room temperature for one hour. Reactions are quenched by addition of 0.625 uL of stop solution to all wells using the BioRaptor. The quenched reactions are then processed to detect product formation by adding 0.625 uL of Detection Solution to all wells using the BioRaptor (Detection mix C, Detection Mix A, and Detection Mix B combined together in an 18:1:1 ratio prepared 2 hours prior to use). Following a one hour incubation in the dark, the HTRF signal is measured on the Envision plate reader set for 330 nm excitation and dual emission detection at […]. […]
A general note: Time-resolved FRET reads energy transfer from a long-lived donor to a nearby acceptor.

For assay [2], the target named is T2, PI3Kalpha (Homo sapiens, UniProt P42336).
T2 construct: purchased Upstate; Millipore 14-602
The assay can be described thus: HTRF PI3K biochemical assay, alpha isoform (selectivity versus delta). To be noted: relative ratio PI3K-alpha IC50 value / PI3K-delta IC50 value.
Text: as §1, §2, §3, §4, §5

T2 sequence (P42336 whole entry): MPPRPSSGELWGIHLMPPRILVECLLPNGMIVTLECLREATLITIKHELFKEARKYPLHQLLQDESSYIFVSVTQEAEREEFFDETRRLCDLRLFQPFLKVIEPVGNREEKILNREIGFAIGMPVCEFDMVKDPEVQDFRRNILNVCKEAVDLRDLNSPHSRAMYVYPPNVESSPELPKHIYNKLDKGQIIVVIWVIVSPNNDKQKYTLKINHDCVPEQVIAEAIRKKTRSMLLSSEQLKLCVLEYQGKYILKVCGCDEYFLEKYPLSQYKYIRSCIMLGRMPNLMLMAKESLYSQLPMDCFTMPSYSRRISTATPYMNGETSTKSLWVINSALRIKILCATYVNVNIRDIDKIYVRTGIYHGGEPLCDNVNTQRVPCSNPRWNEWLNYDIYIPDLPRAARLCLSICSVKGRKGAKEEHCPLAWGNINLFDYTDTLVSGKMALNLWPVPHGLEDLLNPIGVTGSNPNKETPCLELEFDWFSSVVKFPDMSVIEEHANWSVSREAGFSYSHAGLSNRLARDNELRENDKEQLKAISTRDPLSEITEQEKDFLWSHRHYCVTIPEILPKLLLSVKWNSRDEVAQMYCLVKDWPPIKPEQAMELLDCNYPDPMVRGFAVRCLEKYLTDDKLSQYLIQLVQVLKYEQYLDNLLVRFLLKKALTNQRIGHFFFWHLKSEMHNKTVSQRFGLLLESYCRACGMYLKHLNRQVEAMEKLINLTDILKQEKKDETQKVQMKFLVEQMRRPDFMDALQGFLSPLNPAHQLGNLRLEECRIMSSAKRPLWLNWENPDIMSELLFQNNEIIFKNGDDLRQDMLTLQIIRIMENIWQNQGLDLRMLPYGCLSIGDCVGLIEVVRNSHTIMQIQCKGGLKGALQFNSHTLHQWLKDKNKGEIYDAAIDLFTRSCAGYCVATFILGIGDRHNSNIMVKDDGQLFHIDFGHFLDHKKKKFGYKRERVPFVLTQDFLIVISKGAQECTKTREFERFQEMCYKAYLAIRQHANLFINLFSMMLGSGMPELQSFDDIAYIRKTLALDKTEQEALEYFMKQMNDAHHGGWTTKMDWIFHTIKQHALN
T2 sequence (P27986 whole entry partner): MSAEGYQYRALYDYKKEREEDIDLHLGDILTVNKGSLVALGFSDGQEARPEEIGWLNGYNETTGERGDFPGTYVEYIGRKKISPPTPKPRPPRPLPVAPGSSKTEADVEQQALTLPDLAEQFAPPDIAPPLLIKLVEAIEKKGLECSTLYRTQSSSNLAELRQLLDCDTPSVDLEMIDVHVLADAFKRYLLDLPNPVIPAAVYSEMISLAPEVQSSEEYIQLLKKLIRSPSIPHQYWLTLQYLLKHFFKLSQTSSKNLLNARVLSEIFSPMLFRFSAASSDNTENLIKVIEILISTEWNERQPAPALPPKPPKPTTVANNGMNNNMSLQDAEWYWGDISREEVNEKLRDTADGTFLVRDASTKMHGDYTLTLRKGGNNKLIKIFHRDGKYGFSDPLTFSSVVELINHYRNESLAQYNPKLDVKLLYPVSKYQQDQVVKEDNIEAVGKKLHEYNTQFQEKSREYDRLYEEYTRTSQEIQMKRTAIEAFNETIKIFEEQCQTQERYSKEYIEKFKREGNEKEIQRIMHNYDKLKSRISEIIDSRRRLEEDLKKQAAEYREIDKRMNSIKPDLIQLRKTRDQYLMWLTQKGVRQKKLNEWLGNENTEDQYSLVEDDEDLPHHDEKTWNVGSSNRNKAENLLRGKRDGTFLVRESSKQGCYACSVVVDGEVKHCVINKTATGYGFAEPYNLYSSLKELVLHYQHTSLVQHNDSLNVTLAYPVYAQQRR
T1 sequence (O00329 whole entry): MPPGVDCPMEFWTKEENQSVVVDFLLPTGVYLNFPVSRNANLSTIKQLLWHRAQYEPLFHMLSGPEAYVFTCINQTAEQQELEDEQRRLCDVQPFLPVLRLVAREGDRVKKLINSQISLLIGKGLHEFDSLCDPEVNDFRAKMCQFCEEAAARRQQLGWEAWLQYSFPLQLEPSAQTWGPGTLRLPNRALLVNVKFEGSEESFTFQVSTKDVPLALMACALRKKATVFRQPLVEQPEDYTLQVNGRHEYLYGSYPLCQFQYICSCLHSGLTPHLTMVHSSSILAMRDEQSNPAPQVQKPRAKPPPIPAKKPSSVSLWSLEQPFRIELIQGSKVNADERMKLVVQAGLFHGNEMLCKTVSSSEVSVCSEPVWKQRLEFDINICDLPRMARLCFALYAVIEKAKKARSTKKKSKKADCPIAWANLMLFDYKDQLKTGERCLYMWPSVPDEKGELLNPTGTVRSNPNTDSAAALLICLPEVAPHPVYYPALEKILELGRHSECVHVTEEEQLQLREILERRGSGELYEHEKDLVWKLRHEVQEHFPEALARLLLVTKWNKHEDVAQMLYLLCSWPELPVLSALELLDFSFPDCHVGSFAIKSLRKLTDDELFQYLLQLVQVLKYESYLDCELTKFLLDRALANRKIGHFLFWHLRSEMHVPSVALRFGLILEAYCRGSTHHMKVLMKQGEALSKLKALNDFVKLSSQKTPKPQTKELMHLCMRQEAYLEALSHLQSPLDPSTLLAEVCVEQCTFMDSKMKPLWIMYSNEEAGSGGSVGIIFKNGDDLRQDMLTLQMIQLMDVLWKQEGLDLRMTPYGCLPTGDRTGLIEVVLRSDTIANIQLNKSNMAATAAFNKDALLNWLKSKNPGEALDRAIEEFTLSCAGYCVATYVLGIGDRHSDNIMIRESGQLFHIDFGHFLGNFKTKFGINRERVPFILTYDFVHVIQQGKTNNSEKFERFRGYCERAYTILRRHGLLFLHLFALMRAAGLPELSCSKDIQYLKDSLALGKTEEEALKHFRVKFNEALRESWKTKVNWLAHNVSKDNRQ
T1 sequence (P27986 whole entry partner): as the sequence (P27986 whole entry partner) above

With `CCOC(=O)n1nc(C(C)C)c2c1CCC(Nc1ncnc3c1nc(-c1cnc(C)nc1)n3CC)C2` (racemic) [Compound 2-17, (S and R)-ethyl 5-{[9-ethyl-8-(2-methylpyrimidin-5-yl)-9H-purin-6-yl]amino}-3-(1-methylethyl)-4,5,6,7-tetrahydro-1H-indazole-1-carboxylate], the 50% inhibitory concentration (IC50) in assay [1] was determined as 2.3 nM. Also, the “Selectivity versus PI3Kalpha” value in assay [2] was more than 10.
Taken in the same sequence, the figures for `CCn1c(-c2cnc(C)nc2)nc2c(NC3CCc4c(c(C(C)C)nn4C(=O)OC(C)C)C3)ncnc21` (racemic) [Compound 2-18, (S and R)-1-methylethyl 5-{[9-ethyl-8-(2-methylpyrimidin-5-yl)-9H-purin-6-yl]amino}-3-(1-methylethyl)-4,5,6,7-tetrahydro-1H-indazole-1-carboxylate] were less than 1 nM and more than 10.
Taken in the same sequence, the figures for `CCn1c(-c2cnc(C)nc2)nc2c(NC3CCc4c(c(C(C)C)nn4C(=O)OC(C)(C)C(F)(F)F)C3)ncnc21` (racemic) [Compound 2-20, (S and R)-2,2,2-trifluoro-1,1-dimethylethyl 5-{[9-ethyl-8-(2-methylpyrimidin-5-yl)-9H-purin-6-yl]amino}-3-(1-methylethyl)-4,5,6,7-tetrahydro-1H-indazole-1-carboxylate] were 2.6 nM and more than 10.
Taken in the same sequence, the figures for `CCn1c(-c2cnc(C)nc2)nc2c(NC3CCc4c(c(C(C)C)nn4C(=O)NC(C)(C)C)C3)ncnc21` (racemic) [Compound 2-21, (S and R)-N-tert-butyl-5-{[9-ethyl-8-(2-methylpyrimidin-5-yl)-9H-purin-6-yl]amino}-3-(1-methylethyl)-4,5,6,7-tetrahydro-1H-indazole-1-carboxamide] were 16 nM and more than 10.
Turning to `CCn1c(-c2cnc(C)nc2)nc2c(NC3CCc4c(c(C(C)C)nn4-c4ccccn4)C3)ncnc21` (racemic) [Compound 2-22, (S and R)-9-ethyl-N-[3-(1-methylethyl)-1-pyridin-2-yl-4,5,6,7-tetrahydro-1H-indazol-5-yl]-8-(2-methylpyrimidin-5-yl)-9H-purin-6-amine], the IC50 in assay [1] worked out at 11 nM. For the same molecule, the “Selectivity versus PI3Kalpha” value in assay [2] is given as more than 10.
Taken in the same sequence, the figures for `CCn1c(-c2cnc(C)nc2)nc2c(NC3CCc4c(c(C(C)C)nn4S(C)(=O)=O)C3)ncnc21` (racemic) [Compound 2-23, (S and R)-9-ethyl-N-[3-(1-methylethyl)-1-(methylsulfonyl)-4,5,6,7-tetrahydro-1H-indazol-5-yl]-8-(2-methylpyrimidin-5-yl)-9H-purin-6-amine] were less than 1 nM and more than 10.
Taken in the same sequence, the figures for `CCn1c(-c2cnc(C)nc2)nc2c(NC3Cc4cnn(Cc5ccccc5)c4C3)ncnc21` (racemic) [Compound 2-26, (S and R)-N-(1-benzyl-1,4,5,6-tetrahydrocyclopenta[c]pyrazol-5-yl)-9-ethyl-8-(2-methylpyrimidin-5-yl)-9H-purin-6-amine] were 6.1 nM and more than 10.
Taken in the same sequence, the figures for `CCc1nn(CC)c2c1CC(Oc1ncnc3c1nc(-c1cnc(C)nc1)n3CC)CC2` (racemic) [Compound 2-27, (S and R)-6-[(1,3-diethyl-4,5,6,7-tetrahydro-1H-indazol-5-yl)oxy]-9-ethyl-8-(2-methylpyrimidin-5-yl)-9H-purine] were 25 nM and more than 10.
On to `CCc1cnc2n1CC(Oc1ncnc3c1nc(-c1cnc(C)nc1)n3CC)C2` (racemic) [Compound 4-5, (S and R)-9-ethyl-6-[(3-ethyl-6,7-dihydro-5H-pyrrolo[1,2-a]imidazol-6-yl)oxy]-8-(2-methylpyrimidin-5-yl)-9H-purine], for which the 50% inhibitory concentration (IC50) in assay [1] is 550 nM. Besides, the “Selectivity versus PI3Kalpha” value in assay [2] is more than 10.
Taken in the same sequence, the figures for `CCn1c(-c2cnc(C)nc2)nc2c(NC3CCc4nc(Cl)n(C5CC5)c4C3)ncnc21` (racemic) [Compound 5-12, (S and R)-N-(2-chloro-1-cyclopropyl-4,5,6,7-tetrahydro-1H-benzimidazol-6-yl)-9-ethyl-8-(2-methylpyrimidin-5-yl)-9H-purin-6-amine] were less than 1 nM and more than 10.
Taken in the same sequence, the figures for `CCn1c(-c2cnc(C)nc2)nc2c(NC3CCc4nnc(C5CC5)n4C3)ncnc21` (single isomer, unassigned) [Compound 1-1, (S or R)-N-(3-cyclopropyl-5,6,7,8-tetrahydro[1,2,4]triazolo[4,3-a]pyridin-6-yl)-9-ethyl-8-(2-methylpyrimidin-5-yl)-9H-purin-6-amine] were 4.2 nM and more than 10.
Taken in the same sequence, the figures for `CCn1c(-c2cnc(C)nc2)nc2c(NC3CCc4nnc(C5CC5)n4C3)ncnc21` (single isomer, unassigned) [Compound 1-2, (S or R)-N-(3-cyclopropyl-5,6,7,8-tetrahydro[1,2,4]triazolo[4,3-a]pyridin-6-yl)-9-ethyl-8-(2-methylpyrimidin-5-yl)-9H-purin-6-amine] were 65 nM and more than 10.
Take `CCn1c(-c2cnc(C)nc2)nc2c(NC3CCc4nnc(-c5ccccc5)n4C3)ncnc21` (single isomer, unassigned) [Compound 1-3, (S or R)-9-ethyl-8-(2-methylpyrimidin-5-yl)-N-[3-phenyl-5,6,7,8-tetrahydro[1,2,4]triazolo[4,3-a]pyridin-6-yl]-9H-purin-6-amine]: in assay [1], the IC50 came out at 5.9 nM. Moreover, the “Selectivity versus PI3Kalpha” value in assay [2] was more than 10.
Taken in the same sequence, the figures for `CCn1c(-c2cnc(C)nc2)nc2c(NC3CCc4nnc(C(C)C)n4C3)ncnc21` (single isomer, unassigned) [Compound 1-4, (S or R)-9-ethyl-N-[3-(1-methylethyl)-5,6,7.8-tetrahydro[1,2,4]triazolo[4,3-a]pyridin-6-yl]-8-(2-methylpyrimidin-5-yl)-9H-purin-6-amine] were 46 nM and more than 10.
Taken in the same sequence, the figures for `CCn1c(-c2cnc(C)nc2)nc2c(NC3CCc4nnc(C(C)C)n4C3)ncnc21` (single isomer, unassigned) [Compound 1-5, (S or R)-9-ethyl-N-[3-(1-methylethyl)-5,6,7,8-tetrahydro[1,2,4]triazolo[4,3-a]pyridin-6-yl]-8-(2-methylpyrimidin-5-yl)-9H-purin-6-amine] were 1.1 nM and more than 10.
Taken in the same sequence, the figures for `CCc1nnc2n1CC(Nc1ncnc3c1nc(-c1cnc(C)nc1)n3CC)CC2` (single isomer, unassigned) [Compound 1-6, (S or R)-9-ethyl-N-[3-ethyl-5,6,7,8-tetrahydro[1,2,4]triazolo[4,3-a]pyridin-6-yl]-8-(2-methylpyrimidin-5-yl)-9H-purin-6-amine] were 2 nM and more than 10.
Turning to `CCc1nnc2n1CC(Nc1ncnc3c1nc(-c1cnc(C)nc1)n3CC)CC2` (single isomer, unassigned) [Compound 1-7, (S or R)-9-ethyl-N-[3-ethyl-5,6,7,8-tctrahydro[1,2,4]triazolo[4,3-a]pyridin-6-yl]-8-(2-methylpyrimidin-5-yl)-9H-purin-6-amine], the IC50 in assay [1] turned out to be 13 nM. Moreover, in assay [2], the “Selectivity versus PI3Kalpha” value was more than 10.

What is called IC50 is the concentration that gives 50% inhibition.
